We go through 1 compound from patent US7442501B2, “SQV nucleic acids and polypeptides” (Massachusetts Institute of Technology, priority 2002, dated 2008).

SMILES strings stand for the structures.

The test system of the experiment is MBP-SQV-1. In words: UDP-glucuronic acid decarboxylase assay (HPLC-MS). Format: biochemical, C. elegans. Particulars: in the presence of NAD+ cofactor. As for the experimental part:
This enzymatic reaction mixture was analyzed using an HPLC coupled to a mass spectrometer. Ion phase reverse polarity HPLC separated the nucleotide sugars and […] into three peaks of elution as detected by UV (FIG. 3A). These peaks were determined by mass spectrometry to be the substrate UDP-glucuronic acid, the product UDP-xylose, and the cofactor NAD^+. Negative polarity mass spectra identified the masses of the most abundant compounds in the reaction sample as 579 and 535 (FIG. 3B). These masses corresponded to the molecular masses of UDP-glucuronic acid (580) and UDP-xylose (536). The slight difference in molecular mass (579 versus 580 and 535 versus 536) was due to the negative ionization by the mass spectrometer, which removed one hydrogen atom from each compound. The presence of isotopic masses of 536 and 537 corresponded to subpopulations of UDP-xylose containing heavy isotopes such as ^13C.
Standard molecular biology techniques were used (Sambrook et al., Molecular Cloning: A Laboratory Manual. Plainview, N.Y., Cold Spring Harbor Laboratory Pess, 1989) to obtain a construct that encoded a SQV-1-maltose-binding protein (MBP) fusion protein. The sqv-1 coding sequence was cloned into the MBP encoding vector, pMAL-c2. The oligonucleotides 5′-[…]-3′ (SEQ ID NO:32) and 5′-[…]-3′ (SEQ ID NO:33) were used to PCR-amplify the sqv-1 ORF. […]

For the compound `O=C(O)[C@H]1O[C@H](OP(=O)(O)OP(=O)(O)OC[C@H]2O[C@@H](n3ccc(=O)[nH]c3=O)[C@H](O)[C@@H]2O)[C@H](O)[C@@H](O)[C@@H]1O` [UDP-glucuronic acid], the “conversion by MBP-SQV-1 fusion protein” value is given as “generated UDP-xylose from UDP-glucuronic acid”.
